Data on seven compounds can be found in patent US20060052346A1, “Nucleoside phosphonate derivatives useful in the treatment of HIV infections” (priority 2004, published 2006).

The structures appear in SMILES notation. Where two headings read alike, the source gives them in different places.

The test system of this experiment is HIV-1 (NL4-3). In words: Plaque reduction assay (drug susceptibility) in HT4-6C cells infected with HIV-1 NL4-3. To be noted: for IC50: Human immunodeficiency virus 1, NL43, 72 h. Type of experiment: cell-based. From the text: Measurement of Inhibition Effect Against Human Immunodeficiency Virus (HIV)
The compounds of formula 1 protect cells from the cytopathic effects of HIV infection.
Cells. The T-lymphoblastoid cell line CEM was used in this study to propagate HIV. The cells were maintained in RPMI 1640 growth medium supplemented with 10% fetal bovine serum plus antibiotics. The CD4-expressing cell line used for HIV plaque assays, HT4-6C, was made by transforming HeLa cells with the human CD4 gene as described in Chesebro and Wehrly, J. Virology, 62(10), 3779-3788 (1988). These cells were grown in Dulbecco modified eagle medium (DMEM) containing 10% fetal bovine serum plus antibiotics.
Virus propagation. The laboratory strain of HIV-1 (NL4-3) was grown in CEM cells. Virus stocks were prepared from cleared lysates of concentrated infected cells. At peak cytopathic effect (generally 5 days post-infection) culture supernatants were harvested and stored at −80° C. Viral infectivity titers were determined in threefold endpoint dilution assays conducted in CEM cells (six wells per dilution). The 50% tissue culture infective dose (TCID50) was calculated using the Reed and Muench equation.
Plaque titration using HT4-6C. Cells are seeded into 24-well multiwells at 5×10^4 cells per well and incubated overnight at 37° C. in growth medium (DMEM containing 10% fetal bovine serum plus antibiotics). Monolayers were infected with 10-fold dilutions of cell-free NL4-3 virus in 0.2 ml of DMEM and were incubated for 1 h at 37° C. to allow virus adsorption. Following this, 0.8 ml of DMEM containing 5% fetal bovine serum plus antibiotics was added to each well, and the cultures were incubated at 37° C. for 2 to 3 days. The monolayers were fixed with a 10% formaldehyde solution in phosphate-buffered saline and stained with 0.25% crystal violet in order to visualize virus plaques. Individual foci of multinucleated giant cells (plaques) are obvious when this staining procedure was used. Virus titers were evaluated from plaque numbers and were expressed as PFU per milliliter.
Drug susceptibility assays. Plaque reduction assays were performed by infecting monolayers of HT4-6C cells with 100 to 300 PFU of virus per well in 24-well microdilution plates as described above. Half-log concentrations of inhibitor were added to the culture medium (DMEM containing 5% fetal bovine serum plus antibiotics), and cultures were incubated for 3 days at 37° C. prior to fixation and staining as described above. ID50s were derived from plots of percentage of plaque reduction versus inhibitor concentration. See Larder et al., Antimicrob Agents Chemother, 34(3), 436-41 (March 1990).

Setting [1] is: plaque reduction, HT4-6C cell monolayers, 100 to 300 PFU of virus per well, 3 days at 37° C., read-out: ID50 (the source's name).
[2] abbreviates: plaque reduction, HT4-6C cell monolayers, 100 to 300 PFU of virus per well, 3 days at 37° C.

For `Nc1nc(O)c2ncn(CC3(OCP(=O)(O)O)CC3)c2n1` [Compound 5, ({1-[(2-amino-6-hydroxy-9H-purin-9-yl)methyl]cyclopropyl}oxy)methylphosphonic acid], the IC50 under setting [1] is ~100 µM. Moreover, the “ID25” value under setting [2] is <10 µM.

Consider `CC(C)(C)C(=O)OCOP(=O)(COC1(Cn2cnc3c(O)nc(N)nc32)CC1)OCOC(=O)C(C)(C)C` [Compound 6, 3-[({1-[(2-amino-6-hydroxy-9H-purin-9-yl)methyl]cyclopropyl}oxy)methyl]-8,8-dimethyl-3,7-dioxo-2,4,6-trioxa-3λ^5-phosphanon-1-yl pivalate], for which, under setting [1], the IC50 is < 10 µM. The “ID25” value under setting [2] is <0.1 µM.

Consider `Nc1ncc2ncn(CC3(OCP(=O)(O)O)CC3)c2n1` [Compound 9, ({1-[(2-amino-9H-purin-9-yl)methyl]cyclopropyl}oxy)methylphosphonic acid], for which the IC50 under setting [1] is > 100 µM. Further, under setting [2], the “ID25” value is <10 µM.

Take `CC(C)(C)C(=O)OCOP(=O)(COC1(Cn2cnc3cnc(N)nc32)CC1)OCOC(=O)C(C)(C)C` [Compound 10, 3-[({1-[(2-amino-9H-purin-9-yl)methyl]cyclopropyl}oxy)methyl]-8,8-dimethyl-3,7-dioxo-2,4,6-trioxa-3λ^5-phosphanon-1-yl pivalate]: where the note is “read-out: ID50 (μM)”, the IC50 was < 10 µM. The “ID25” value under setting [2] is <0.1 µM.

Regarding `CC1CC1(Cn1cnc2cnc(N)nc21)OCP(=O)(O)O` (centres unmarked) [Compound 98, ({1-[(2-amino-9H-purin-9-yl)methyl]-2-methylcyclopropyl}oxy)methylphosphonic acid], the IC50 under setting [1] was > 100 µM. Besides, the “ID25” value under setting [2] is <200 µM.

With `CC1CC1(Cn1cnc2c(N)ncnc21)OCP(=O)(O)O` (centres unmarked) [Compound 103, ({1-[(6-amino-9H-purin-9-yl)methyl]-2-methylcyclopropyl}oxy)methylphosphonic acid], under setting [1], the IC50 was > 100 µM. The “ID25” value under setting [2] is <10 µM.

For the compound `CC1CC1(Cn1cnc2cnc(N)nc21)OCP(=O)(OCOC(=O)C(C)(C)C)OCOC(=O)C(C)(C)C` (centres unmarked) [Compound 106, 3-[({1-[(2-amino-9H-purin-9-yl)methyl]-2-methylcyclopropyl}oxy)methyl]-8,8-dimethyl-3,7-dioxo-2,4,6-trioxa-3λ^5-phosphanon-1-yl pivalate], the IC50 under setting [1] is < 100 µM. For the same compound, the “ID25” value under setting [2] was <1.0 µM.
